Common to all, as to format: in vivo
Test [1] concerns chronic kidney disease-induced anemia in SD rats. Briefly: Rat model of chronic kidney disease-induced anemia (adenine). The conditions noted are these: 5, 15, 45 mg/kg po QD×4 weeks, end of study. The method, then:
SPF-grade male SD rats (200±20 g, 8 weeks) were purchased from Zhejiang Vital River Laboratory Animal Technology Co., Ltd. After acclimating for a week, blood samples were collected and analyzed to exclude anormal animals. The normal animals were randomized, 10 animals were assigned into Control group which were left untreated until the end of the study, and the rest animals received 300 mg/kg adenine by oral gavage (QD×6 weeks). […] Then 60 adenine-treated rats with successful model establishment were further randomized into the following six groups: Model group (treated with vehicle), EPO group (50 U/kg), Cpd. 73 5 mg/kg group, Cpd. 73 15 mg/kg group, Cpd. 73 45 mg/kg group and CPD. 73+EPO group (15 mg/kg+50 U/kg). Each group contained 10 animals. Cpd. 73 was administered to rats by oral gavage (QD×4 weeks), while EPO was subcutaneously administered (TIW×4 weeks).
Body weight, mortality and health condition of rats were recorded twice a week. After model establishment, blood samples were take from the orbit and a few parameters were determined including RBC, HGB, HCT, RET, BUN and Creatine. Blood samples were taken once a week during drug treatment and RBC, HGB, HCT, and RET were analyzed.

The subject of test [2] is DSS induced IBD in C57BL/6 mice. Briefly: DSS induced inflammatory bowel disease (IBD) model. The conditions noted are these: 90 mg/kg po qd day 0 to day 7. The text has this: Female C57BL/6 mice (8 weeks old) were obtained from Beijing Vital River Laboratory Animal Co. Ltd. Animals were housed and handled in a temperature-controlled environment with a 12-h light/12-h dark cycle. A total of 30 mice were assigned to 3 groups by randomization based on body weight.
On Day 0, colitis was induced by administration of 3% DSS (dextran sodium sulfate, molecular weight 36,000-50,000) in drinking water ad libitum for 8 days. 8-week-old mice were divided into 3 groups: Group 2, DSS treatment group (vehicle, po, qd, from day 0 to day 7); Group 3, DSS with 90 mg/kg Cpd. 73 (po, qd, from day 0 to day 7); and the Group 1 (G1) Naive group, the mice were provided drinking water without DSS. The protocols and procedures involving the care and use of animals were approved by the Institutional Animal Care and Use Committee (IACUC) at Wuxi Apptec (Shanghai, China).
At the end of the study, the animals were euthanized, dissected and the entire colon was quickly removed and gently cleared of feces.
At the end of the study (day 8), all the animals were sacrificed by CO2. The colon was Swiss-rolled and fixed with neutralized PFA followed by H&E staining. After that, the pathologists from WuXi clinical pathological analysis platform, who were blinded to animal ID, reviewed the H&E staining and scored. […]

Test [3] has as its system CD4+CD45RBhigh T-cell transfer-induced IBD in CB17 mice. Briefly: T cell transfer induced inflammatory bowel disease (IBD) model. The conditions noted are these: 90 mg/kg po qd day 14 to day 41. The text has this:
Female CB17 mice (8 weeks old) were obtained from Zhejiang Vital River Laboratory Animal Co. Ltd. Animals were housed and handled in a temperature-controlled environment with a 12-h light/12-h dark cycle. A total of 30 mice were assigned to 3 groups by randomization based on body weight.
To generate T cell transfer induced colitis, 95 female Balb/c mice, aged 8-10 weeks, were used to prepare naive CD4^+CD45RB^high T and CD4^+CD45RB^low T cells. The mouse spleens were harvested in precooled DPBS, grinded into cell suspension and passed through a 70 μm cell filter after erythrocytes lysed by ACK. Cells were collected and counted by centrifugation. Then, CD4 positive T cells were isolated by using negative magnetic bead separation kit. CD4^+CD45RB^high naive T cells were selected by flow cytometry and used for model construction. 20 CB17 model mice were intraperitoneally injected with 5×10^5 naive CD4^+CD45RB^high T cells each on Day 0. 10 mice in negative control group were intraperitoneally injected with 5×10^5 CD4^+CD45RB^low T cells on Day 0.
Mice in Group 2 were treated with vehicle for 28 days (po, qd, from day 14 to day 41). Mice in Group 3 were treated with 90 mg/kg Cpd. 73 for 28 days (therapeutic regimen, po, qd, from day 14 to day 41). The protocols and procedures involving the care and use of animals were approved by the Institutional Animal Care and Use Committee (IACUC) at WuxiApptec (Shanghai, China).
Clinical signs of IBD were assessed every day based on the score of disease activity index (DAI) which was evaluated from two parameters using a scoring system from 0 to 4: stool consistency (0, normal stool; 1, soft but still formed stool; 2, soft and not formed stool; 3, very soft and wet stool; 4, watery diarrhea), and body weight loss (0, no body weight loos; 1, 1-5% body weight loss; 2, 6-10% body weight loss; 3, 11-20% body weight loss; 4, >20% body weight loss).
At the end of the study (day 42), the animals were euthanized, dissected and the entire colon was quickly removed and gently cleared of feces.
At the end of the study (day 42), all the animals were sacrificed by CO2. The colon was Swiss-rolled and fixed with neutralized PFA followed by H&E staining. After that, the pathologists from WuXi clinical pathological analysis platform, who were blinded to animal ID, reviewed the H&E staining and scored. The pathological scoring standards were as follows: crypt architecture (normal, 0; severe crypt distortion with loss of entire crypts, 3), degree of inflammatory cell infiltration (normal, 0; dense inflammatory infiltrate, 3), muscle thickening (normal, 0; marked muscle thickening present, 3), goblet cell depletion (absent, 0; present, 1) and crypt abscess (absent, 0; present, 1).

On to `CC(C)N1Cc2cc(C(F)(F)F)ncc2-c2cnc(NCc3c(F)ccc4c3CCO4)n3cnc(c23)C1=O` [Cpd. 73, 12-(((5-fluoro-2,3-dihydrobenzofuran-4-yl)methyl)amino)-4-isopropyl-7-(trifluoromethyl)-4,5-dihydro-3H-2,4,8,11,12a-pentaazabenzo[4,5]cycloocta[1,2,3-cd]inden-3-one], for which the body weight result in test [1] (p<0.001 or 0.01 vs Model) is reported as “dose-dependently improved”. For the same molecule, in test [1] (p<0.001 or 0.05 vs Model), the HCT entry is listed as “dose-dependently improved”, the HGB entry is listed as “dose-dependently improved”, the RBC entry is “dose-dependently improved” and the RET result is listed as “dose-dependently improved”. In test [2] (day 8, vehicle 10.10±0.18), the “pathological score (H&E, colon)” value amounted to 8.30±0.54. Further, the “colon density (colon weight/colon length)” value in test [2] (vehicle 50.88±2.53) was determined as 41.86±2.57. The body weight loss result in test [3] is “improved”. The colon length in test [3] (day 42, vehicle 7.72±0.18 cm) amounted to 10.26±0.22 cm. The “pathological score (H&E, colon)” value in test [3] (day 42, vehicle 9.00±0.47) is listed as 3.70±0.37. For the same molecule, the colon weight in test [3] (day 42, vehicle 439.10±25.46 mg) was 323.40 ± 16.06 mg. This molecule showed a DAI score in test [3] (on day 42, vehicle 4.90±0.41) of 1.4±0.27.

For the origin of these results see patent publication US20240366611A1, “METHODS OF TREATING A DISEASE OR DISORDER” (Ascentage Pharma (Suzhou) Co., Ltd., priority 2021, published 2024).
